Several values for one entry are separate records, joined by “and”; a condition that tells them apart may be missing. Equal entries are not always repeated. Inconclusive results and toxic doses are left out.
Test system: P388 leukemia ip, CD2F1 mice, survival T/C
Experiment: NCI In Vivo Anticancer Drug Screen. Data for tumor model P388 Leukemia (intraperitoneal) in CD2F1 (CDF1) mice
Details: endpoint: median survival time, higher = longer survival
How it was run: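 Mice carrying the transplanted tumor received test compound or vehicle. Survival was recorded in each group, and the value is the treated-group measurement divided by that of the vehicle-treated control group.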

[1] = dose: 100.0 mg/kg/injection, schedule: Q01DX009 (ip), vehicle: saline with Tween-80
[2] = dose: 60.0 mg/kg/injection, schedule: Q01DX005 (ip), vehicle: Klucel (hydroxypropylcellulose) (HPC)
[3] = dose: 120.0 mg/kg/injection, schedule: Q01DX005 (ip), vehicle: Klucel (hydroxypropylcellulose) (HPC)
[4] = dose: 50.0 mg/kg/injection, schedule: Q01DX009 (ip), vehicle: Klucel (hydroxypropylcellulose) (HPC)
[5] = dose: 100.0 mg/kg/injection, schedule: Q01DX009 (ip), vehicle: Klucel (hydroxypropylcellulose) (HPC)
[6] = dose: 200.0 mg/kg/injection, schedule: Q01DX009 (ip), vehicle: Klucel (hydroxypropylcellulose) (HPC)
[7] = dose: 50.0 mg/kg/injection, schedule: Q01DX005 (ip), vehicle: Klucel (hydroxypropylcellulose) (HPC)
[8] = dose: 100.0 mg/kg/injection, schedule: Q01DX005 (ip), vehicle: Klucel (hydroxypropylcellulose) (HPC)
[9] = dose: 200.0 mg/kg/injection, schedule: Q01DX005 (ip), vehicle: Klucel (hydroxypropylcellulose) (HPC)
[10] = dose: 50.0 mg/kg/injection, schedule: Q01DX009 (ip), vehicle: saline
[11] = dose: 100.0 mg/kg/injection, schedule: Q01DX009 (ip), vehicle: saline
[12] = dose: 200.0 mg/kg/injection, schedule: Q01DX009 (ip), vehicle: saline with Tween-80
[13] = dose: 400.0 mg/kg/injection, schedule: Q01DX009 (ip), vehicle: saline with Tween-80
[14] = dose: 50.0 mg/kg/injection, schedule: Q01DX009 (ip), vehicle: saline with Tween-80
[15] = dose: 60.0 mg/kg/injection, schedule: Q01DX005 (ip), vehicle: saline with Tween-80
[16] = dose: 100.0 mg/kg/injection, schedule: Q04DX003 (ip), vehicle: saline with Tween-80
[17] = dose: 200.0 mg/kg/injection, schedule: Q04DX003 (ip), vehicle: saline with Tween-80
[18] = dose: 400.0 mg/kg/injection, schedule: Q04DX003 (ip), vehicle: saline with Tween-80
[19] = dose: 12.5 mg/kg/injection, schedule: Q01DX009 (ip), vehicle: Klucel (hydroxypropylcellulose) (HPC)
[20] = dose: 25.0 mg/kg/injection, schedule: Q01DX009 (ip), vehicle: Klucel (hydroxypropylcellulose) (HPC)

O=C(CCCCCCCCc1ccccc1)c1c(O)cccc1O was tested, and the T/C (dose: 6.0 mg/kg/injection, schedule: Q01DX009 (ip), vehicle: Klucel (hydroxypropylcellulose) (HPC)) was 95 % of control, the T/C (dose: 12.0 mg/kg/injection, schedule: Q01DX009 (ip), vehicle: Klucel (hydroxypropylcellulose) (HPC)) was 88 % of control and the T/C (dose: 24.0 mg/kg/injection, schedule: Q01DX009 (ip), vehicle: Klucel (hydroxypropylcellulose) (HPC)) was 97 % of control. The T/C (dose: 48.0 mg/kg/injection, schedule: Q01DX009 (ip), vehicle: Klucel (hydroxypropylcellulose) (HPC)) was 97 % of control.

In the case of ClCCN(Cc1ccccc1)Cc1ccccc1, the T/C (dose: 3.13 mg/kg/injection, schedule: Q01DX009 (ip), vehicle: saline with Tween-80) is reported as 104 % of control, the T/C (dose: 6.25 mg/kg/injection, schedule: Q01DX009 (ip), vehicle: saline with Tween-80) is reported as 119 % of control and the T/C (dose: 12.5 mg/kg/injection, schedule: Q01DX009 (ip), vehicle: saline with Tween-80) is reported as 123 % of control.

In the case of NOCc1cccc(Cl)c1, the T/C (dose: 25.0 mg/kg/injection, schedule: Q01DX009 (ip), vehicle: saline with Tween-80) is reported as 87 % of control and the T/C [1] is reported as 87 % of control.

CCOC(=O)NN(C(=O)OCC)C(C(C)=O)c1ccccc1 (stereo unspecified) was tested, and the T/C [2] was 105 % of control, the T/C [3] was 103 % of control and the T/C (dose: 240.0 mg/kg/injection, schedule: Q01DX005 (ip), vehicle: Klucel (hydroxypropylcellulose) (HPC)) was 103 % of control.

In the case of CSc1nc(C(N)=O)c(N)c(=O)[nH]1, the T/C [4] is reported as 109 % of control, the T/C [5] is reported as 110 % of control and the T/C [6] is reported as 117 % of control.

For COc1cc(-c2nc(SC)n[nH]2)cc(OC)c1OC, the T/C [7] was 95 % of control, the T/C [8] was 104 % of control and the T/C [9] was 88 % of control.

With O=C1NC(O)c2ccccc2O1 (stereo unspecified) the T/C [10] was 106 % of control and the T/C [11] was 123 % of control.

With Nc1nc(=O)n(C2CC(O)C(O)C(CO)O2)cc1F (stereo unspecified) the T/C [1] was 109 % of control, the T/C [12] was 97 % of control and the T/C [13] was 93 % of control.

With O=S(=O)(Cc1ccccc1)C(c1ccccc1)S(=O)(=O)Cc1ccccc1 the T/C [4] was 96 % of control, the T/C [5] was 91 % of control and the T/C [6] was 100 % of control.

For CCCCOc1cccc2c(NCCCNCCCNc3c4ccccc4nc4c(OCCCC)cccc34)c3ccccc3nc12, the T/C (dose: 0.63 mg/kg/injection, schedule: Q01DX009 (ip), vehicle: other) was 114 % of control, the T/C (dose: 1.25 mg/kg/injection, schedule: Q01DX009 (ip), vehicle: other) was 121 % of control and the T/C (dose: 2.5 mg/kg/injection, schedule: Q01DX009 (ip), vehicle: other) was 120 % of control and 124 % of control. The T/C (dose: 5.0 mg/kg/injection, schedule: Q01DX009 (ip), vehicle: other) was 100 % of control.

O=CN1CCCC1Cc1ccc2ccccc2c1 (stereo unspecified) was tested, and the T/C (dose: 50.0 mg/kg/injection, schedule: Q01DX001 (ip), vehicle: Klucel (hydroxypropylcellulose) (HPC)) was 107 % of control, the T/C (dose: 100.0 mg/kg/injection, schedule: Q01DX001 (ip), vehicle: Klucel (hydroxypropylcellulose) (HPC)) was 98 % of control and the T/C (dose: 200.0 mg/kg/injection, schedule: Q01DX001 (ip), vehicle: Klucel (hydroxypropylcellulose) (HPC)) was 101 % of control.

CCOC(=O)/C=C/c1nc(C(=O)OCC)c(C)c(=O)[nH]1 was tested, and the T/C (dose: 1.0 mg/kg/injection, schedule: Q01DX009 (ip), vehicle: other) was 120 % of control, the T/C (dose: 2.0 mg/kg/injection, schedule: Q01DX009 (ip), vehicle: other) was 99 % of control and the T/C (dose: 4.0 mg/kg/injection, schedule: Q01DX009 (ip), vehicle: other) was 99 % of control. For the same compound, the T/C (dose: 8.0 mg/kg/injection, schedule: Q01DX009 (ip), vehicle: other) was 107 % of control, the T/C (dose: 16.0 mg/kg/injection, schedule: Q01DX009 (ip), vehicle: other) was 104 % of control and 95 % of control and the T/C (dose: 32.0 mg/kg/injection, schedule: Q01DX009 (ip), vehicle: other) was 95 % of control. The T/C (dose: 64.0 mg/kg/injection, schedule: Q01DX009 (ip), vehicle: other) was 92 % of control, the T/C (dose: 128.0 mg/kg/injection, schedule: Q01DX009 (ip), vehicle: other) was 95 % of control and the T/C (dose: 200.0 mg/kg/injection, schedule: Q01DX009 (ip), vehicle: distilled water + Tween-80) was 99 % of control. For the same compound, the T/C (dose: 256.0 mg/kg/injection, schedule: Q01DX009 (ip), vehicle: other) was 113 % of control and the T/C (dose: 400.0 mg/kg/injection, schedule: Q01DX009 (ip), vehicle: distilled water + Tween-80) was 100 % of control.

For OC(c1ccccc1)(C(F)(F)F)C(O)(c1ccccc1)C(F)(F)F (stereo unspecified), the T/C [14] was 99 % of control, the T/C [1] was 104 % of control and the T/C [12] was 87 % of control.

For O=C(O)CC1OCC=C2C[N+]3([O-])CCC45c6ccccc6NC4C1C2CC53 (stereo unspecified), the T/C (dose: 15.0 mg/kg/injection, schedule: Q01DX005 (ip), vehicle: saline with Tween-80) was 105 % of control, the T/C (dose: 30.0 mg/kg/injection, schedule: Q01DX005 (ip), vehicle: saline with Tween-80) was 105 % of control and the T/C [15] was 99 % of control and 101 % of control.

With COc1c2occc2c(NC(=O)CI)c2ccc(=O)oc12 the T/C (dose: 25.0 mg/kg/injection, schedule: Q04DX002 (ip), vehicle: saline with Tween-80) was 102 % of control, the T/C (dose: 50.0 mg/kg/injection, schedule: Q04DX002 (ip), vehicle: saline with Tween-80) was 101 % of control and the T/C (dose: 100.0 mg/kg/injection, schedule: Q04DX002 (ip), vehicle: saline with Tween-80) was 101 % of control.

In the case of O=C(O)/C=C(O)/C=C/c1ccccc1, the T/C [16] is reported as 92 % of control, the T/C [17] is reported as 101 % of control and the T/C [18] is reported as 101 % of control.

In the case of NC(=O)N/N=C1/CCCCCC1(c1ccccc1)c1ccccc1, the T/C (dose: 30.0 mg/kg/injection, schedule: Q01DX005 (ip), vehicle: Klucel (hydroxypropylcellulose) (HPC)) is reported as 95 % of control, the T/C [2] is reported as 89 % of control and the T/C [3] is reported as 91 % of control.

For NC(Cc1ccc(O)cc1)C(=O)OC1CCCCC1 (stereo unspecified), the T/C (dose: 25.0 mg/kg/injection, schedule: Q04DX003 (ip), vehicle: saline with Tween-80) was 107 % of control, the T/C (dose: 50.0 mg/kg/injection, schedule: Q04DX003 (ip), vehicle: saline with Tween-80) was 110 % of control and the T/C [16] was 100 % of control. The T/C [17] was 96 % of control and the T/C [18] was 95 % of control.

For CCOc1ccc(C(C)c2cc3c(cc2O)OCO3)cc1 (stereo unspecified), the T/C [15] was 105 % of control, the T/C (dose: 120.0 mg/kg/injection, schedule: Q01DX005 (ip), vehicle: saline with Tween-80) was 104 % of control and the T/C (dose: 240.0 mg/kg/injection, schedule: Q01DX005 (ip), vehicle: saline with Tween-80) was 109 % of control.

For C/C=C/C(=O)Sc1ccccc1, the T/C [19] was 108 % of control, the T/C [20] was 105 % of control and the T/C [4] was 101 % of control and 105 % of control.

In the case of CCOc1ccc(OCC)c(C(O)C(C)NC(C)C)c1 (stereo unspecified), the T/C (dose: 6.25 mg/kg/injection, schedule: Q01DX009 (ip), vehicle: Klucel (hydroxypropylcellulose) (HPC)) is reported as 101 % of control, the T/C [19] is reported as 100 % of control and the T/C [20] is reported as 99 % of control and 115 % of control.

For COC(=S)SSC(=S)NCC(C)NC(=S)SSC(=S)OC (stereo unspecified), the T/C [7] was 103 % of control, the T/C [8] was 103 % of control and the T/C [9] was 105 % of control.

In the case of CC1S(=O)(=O)OCCCOS1(=O)=O, the T/C (dose: 12.5 mg/kg/injection, schedule: Q01DX005 (ip), vehicle: Klucel (hydroxypropylcellulose) (HPC)) is reported as 119 % of control and the T/C (dose: 25.0 mg/kg/injection, schedule: Q01DX005 (ip), vehicle: Klucel (hydroxypropylcellulose) (HPC)) is reported as 154 % of control.

In the case of N=C(N)SCCCN, the T/C (dose: 25.0 mg/kg/injection, schedule: Q01DX009 (ip), vehicle: saline) is reported as 95 % of control, the T/C [10] is reported as 103 % of control and the T/C [11] is reported as 112 % of control. The T/C (dose: 200.0 mg/kg/injection, schedule: Q01DX009 (ip), vehicle: saline) was 112 % of control.

In the case of O=C1c2ccccc2C(=O)c2c(NCCN3CCOCC3)ccc(NCCN3CCOCC3)c21, the T/C [14] is reported as 108 % of control, the T/C [1] is reported as 109 % of control and the T/C [12] is reported as 115 % of control. For the same compound, the T/C [13] was 117 % of control.

From PubChem BioAssay AID330 (DTP/NCI, 2004)
